Test systems include OVCAR-5 ovarian; SK-MEL-5 melanoma; RPMI-8226 leukemia; SNB-19 CNS; HCT-15 colon; IGROV1 ovarian; MDA-MB-435; SW-620 colon; HOP-62 NSCLC; HS 578T breast.
Common to all, as to test: DTP human tumour cell line panel, 48 h

By TGI is commonly meant the concentration at which net growth stops. Low readings indicate more potent growth arrest, high ones less potent growth arrest. As a reminder, the GI50 is the concentration at which growth is held to half of that of the control.

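How tested: cells in 96-well plates exposed to compound for 48 hours at five concentrations. Here, GI50 denotes the concentration required for 50% inhibition of growth. The concentration for full growth arrest is given as TGI.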 Some results are limits rather than exact numbers.

With `NC(=O)NNCc1ccccc1`, the total growth inhibition concentration (TGI) in the assay with OVCAR-5 ovarian, in the assay on SK-MEL-5 melanoma, with RPMI-8226 leukemia, in the assay on SNB-19 CNS, in the assay on HCT-15 colon and in the assay on IGROV1 ovarian was above 100 µM throughout. Further, the TGI in the assay on MDA-MB-435, with SW-620 colon, in the assay on HOP-62 NSCLC and in the assay on HS 578T breast was above 100 µM each time.

As for `C=C1C(=O)O[C@H]2[C@H]1CC/C(CNC(=O)Cc1c[nH]c3ccccc13)=C\CC[C@@]1(C)O[C@@H]21`, the GI50 with OVCAR-5 ovarian is 10.2 µM; in the assay on SK-MEL-5 melanoma it was 7.32 µM; in the assay with RPMI-8226 leukemia, 0.486 µM; in the assay with SNB-19 CNS, 15 µM; with HCT-15 colon, 1.58 µM; in the assay with IGROV1 ovarian it was 0.833 µM. Also, the GI50 was 0.862 µM with MDA-MB-435, 0.352 µM with SW-620 colon, 5.06 µM in the assay on HOP-62 NSCLC and 11.9 µM in the assay with HS 578T breast. Moreover, the TGI worked out at 24.2 µM in the assay on OVCAR-5 ovarian; 20.3 µM with SK-MEL-5 melanoma; 3.96 µM in the assay with RPMI-8226 leukemia; 35.2 µM with SNB-19 CNS; 13.1 µM in the assay with HCT-15 colon; 9.06 µM in the assay with IGROV1 ovarian. Moreover, the TGI with MDA-MB-435 was found to be 13.4 µM; in the assay on SW-620 colon, 1.37 µM; in the assay with HOP-62 NSCLC, 19.7 µM; with HS 578T breast, 45.5 µM.

On to `COc1ccc(C2CC(c3cc(OC)c(OC)c(OC)c3)=NO2)cc1OCCCCOc1cc2c(cc1OC)C(=O)N1CCC[C@H]1C=N2` (stereo not given in full), for which the GI50 in the assay with OVCAR-5 ovarian is 3.13 µM; in the assay with SK-MEL-5 melanoma, 1.47 µM; in the assay on RPMI-8226 leukemia, 1.43 µM; in the assay with SNB-19 CNS, 1.96 µM; with HCT-15 colon, 2.27 µM; in the assay with IGROV1 ovarian, 1.57 µM. Also, the GI50 with MDA-MB-435 is 3.54 µM; with SW-620 colon it was 1.55 µM; in the assay with HOP-62 NSCLC, 1.68 µM; in the assay on HS 578T breast it was 1.1 µM. Also, the TGI was found to be 8.34 µM in the assay with OVCAR-5 ovarian; 2.79 µM with SK-MEL-5 melanoma; 4.31 µM in the assay with RPMI-8226 leukemia; 4.97 µM in the assay with SNB-19 CNS; 5.54 µM in the assay with HCT-15 colon; 3.06 µM in the assay on IGROV1 ovarian. In addition, the TGI in the assay with MDA-MB-435 was above 100 µM; in the assay on SW-620 colon, 3.15 µM; in the assay with HOP-62 NSCLC, 3.43 µM; in the assay with HS 578T breast, 3.82 µM.

As to `COc1cc2c(cc1O)CC[C@@H]1[C@@H]2CC[C@]2(C)[C@@H](NCCN(C)C)CC[C@@H]12`, the GI50 in the assay on OVCAR-5 ovarian is 0.314 µM; with SK-MEL-5 melanoma, 0.0694 µM; in the assay with RPMI-8226 leukemia it was 0.159 µM; in the assay with SNB-19 CNS it was 0.4 µM; in the assay with HCT-15 colon, 0.111 µM; with IGROV1 ovarian, 0.407 µM. The GI50 in the assay on MDA-MB-435 is 0.0662 µM; with SW-620 colon, 0.14 µM; in the assay on HOP-62 NSCLC, 0.194 µM; with HS 578T breast, 0.277 µM. For the same compound, the TGI in the assay with OVCAR-5 ovarian was determined as 0.856 µM; in the assay with SK-MEL-5 melanoma, 0.166 µM; with RPMI-8226 leukemia, 0.665 µM; in the assay on SNB-19 CNS, 0.966 µM; in the assay with HCT-15 colon, 0.454 µM; in the assay on IGROV1 ovarian it was 0.954 µM. For the same compound, the TGI in the assay with MDA-MB-435 was 0.133 µM; in the assay on SW-620 colon, 0.556 µM; in the assay with HOP-62 NSCLC, 0.717 µM; in the assay with HS 578T breast it was 1.1 µM.

Take `Cc1cc2nc(C(C)C(=O)c3ccc(Cl)cc3)c(=O)[nH]c2cc1C` (stereo not given): the TGI in the assay on OVCAR-5 ovarian, in the assay on SK-MEL-5 melanoma, in the assay with RPMI-8226 leukemia, with SNB-19 CNS, in the assay on HCT-15 colon and with IGROV1 ovarian was above 100 µM throughout. Further, the TGI with MDA-MB-435 is 49.6 µM; in the assay with SW-620 colon, above 100 µM; in the assay on HOP-62 NSCLC, above 100 µM; with HS 578T breast, above 100 µM.

Take `Nc1c(C(=O)c2cccc(CCCN3CCOCC3)c2)cnn1-c1ccc(F)cc1`: the GI50 in the assay with OVCAR-5 ovarian is above 25 µM; with SK-MEL-5 melanoma it was 24.7 µM; in the assay on RPMI-8226 leukemia it was above 25 µM; in the assay with SNB-19 CNS, above 25 µM; in the assay with HCT-15 colon, above 25 µM; in the assay with IGROV1 ovarian, above 25 µM. For the same compound, the GI50 in the assay with MDA-MB-435, in the assay with SW-620 colon, in the assay on HOP-62 NSCLC and in the assay with HS 578T breast was above 25 µM each time. Moreover, the TGI in the assay on OVCAR-5 ovarian, in the assay on SK-MEL-5 melanoma, in the assay with RPMI-8226 leukemia, in the assay on SNB-19 CNS, with HCT-15 colon and with IGROV1 ovarian was above 25 µM each time. The TGI in the assay on MDA-MB-435, with SW-620 colon, in the assay with HOP-62 NSCLC and in the assay with HS 578T breast was above 25 µM throughout.

For the compound `COc1cccc2c1C(=O)C=CC2=O`, the TGI was found to be 33 µM in the assay on OVCAR-5 ovarian; 30.3 µM in the assay with SK-MEL-5 melanoma; 7.23 µM with RPMI-8226 leukemia; 29.3 µM in the assay with SNB-19 CNS; 24.2 µM in the assay with HCT-15 colon; 27.2 µM in the assay with IGROV1 ovarian. The TGI with MDA-MB-435 is 26.2 µM; in the assay with SW-620 colon it was 23.6 µM; with HOP-62 NSCLC, 34.4 µM; with HS 578T breast, above 100 µM.
